A word on the IC50: it is the midpoint of a concentration-inhibition curve.

Settings in all cases: pH 10
Assay [1] concerns the target T1, Carbonic anhydrase 2 (Homo sapiens, UniProt P00918). The assay can be described thus: Esterase Activity Assay. The protocol:
(§1) Carbonic anhydrase enzyme activity was assayed both with respect to its hydratase activity (i.e. hydration of CO2) and to its esterase activity (i.e. hydrolysis of an ester of p-nitrophenylacetate)

Assay [2] addresses T2, Carbonic anhydrase 1 (Homo sapiens, UniProt P00915). The assay can be described thus: Esterase Activity Assay. As to the method: as §1
In assay [3] the target is T1, Carbonic anhydrase 2. The assay can be described thus: Hydratase Activity Assay. As to the method:
as §1

In assay [4] the target is T2, Carbonic anhydrase 1. The assay can be described thus: Hydratase Activity Assay. The protocol:
as §1

T2 sequence (P00915 whole entry): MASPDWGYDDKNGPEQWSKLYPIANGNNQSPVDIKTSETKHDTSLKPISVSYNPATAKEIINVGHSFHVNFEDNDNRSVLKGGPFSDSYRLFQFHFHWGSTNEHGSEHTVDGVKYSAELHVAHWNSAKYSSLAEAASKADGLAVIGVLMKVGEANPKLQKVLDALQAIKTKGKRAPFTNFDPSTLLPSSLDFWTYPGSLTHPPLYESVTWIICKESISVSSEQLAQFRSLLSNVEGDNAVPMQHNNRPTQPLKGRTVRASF

As for `O=c1oc2cc(O)c(O)cc2cc1-c1ccccc1` [DCP], the IC50 against Carbonic anhydrase 2 [1] is 246 µM; against Carbonic anhydrase 1 [2], 160 µM; on Carbonic anhydrase 2 [3], 61.7 µM; against Carbonic anhydrase 1 [4], 124 µM.
On to `Cc1cccc(-c2cc3cc(O)c(O)cc3oc2=O)c1` [MPC], for which the IC50 at Carbonic anhydrase 2 [1] came out at 201 µM; against Carbonic anhydrase 1 [2], 837 µM; on Carbonic anhydrase 2 [3], 504 µM; at Carbonic anhydrase 1 [4], 320 µM.
For `Cc1ccccc1-c1cc2cc(O)c(O)cc2oc1=O` [OPC], in that order: 163 µM, 153 µM, 363 µM and 206 µM.
For `Cc1ccc(-c2cc3cc(O)c(O)cc3oc2=O)cc1` [PPC], in that order: 127 µM, 256 µM, 561 µM and 272 µM.

Values taken from BindingDB's records for doi:10.1080/14756360701404100 (Balikesir University Science & Art Faculty, 2008).
